# According to US10463651B2, “3-(1H-pyrrolo[3,2-C]pyridin-2-YL)-1H-indazoles and therapeutic uses thereof” (Samumed, LLC, priority 2015, dated 2019):
# Experiments:
# Assay type in all cases: cell-based
# [1] = test system: Wnt activity (Sp5-Luc reporter, SW480 colon carcinoma cells); test: Screening assay for Wnt activity (Sp5-Luc reporter gene assay in SW480 cells); details: Homo sapiens; for EC50: Sp5-Luc reporter, SW480 cells, incubated overnight
# From the text: The screening assay for Wnt activity is described as follows. Reporter cell lines can be generated by stably transducing cancer cell lines (e.g., colon cancer) or primary cells (e.g., IEC-6 intestinal cells) with a lentiviral construct that includes a Wnt-responsive promoter driving expression of the firefly luciferase gene.
# SW480 colon carcinoma cells were transduced with a lentiviral vector expressing luciferase with a human Sp5 promoter consisting of a sequence of eight TCF/LEF binding sites. SW480 cells stably expressing the Sp5-Luc reporter gene and a hygromycin resistance gene were selected by treatment with 150 μg/mL of hygromycin for 7 days. These stably transduced SW480 cells were expanded in cell culture and used for all further screening activities. […] For Sp5-Luc reporter gene assays, the cells were plated at 4,000 cells/well in 384-well plates with medium containing 1% fetal bovine serum and incubated overnight at 37° C. and 5% CO2. Following incubation, 20 μl of BrightGlo luminescence reagent (Promega) was added to each well of the 384-well assay plates. The plates were placed on an orbital shaker for 2 min and then luminescence was quantified using the Envision (Perkin Elmer) plate reader. Readings were normalized to DMSO only treated cells, and normalized activities were utilized for EC50 calculations using the dose-response log (inhibitor) vs. response-variable slope (four parameters) nonlinear regression feature available in GraphPad Prism 5.0 (or Dotmatics).
# IL-6 (THP-1 cells) = test: IL-6 inhibition in LPS-stimulated THP-1 cells (HTRF); details: Homo sapiens; IL6 by HTRF, THP-1 cells, 500 ng/mL LPS, 22 hours
# Protocol: THP-1 cells were cultured in basal media with 1% FBS for 24 hours before the start of the assay. […] THP-1 cells were plated at 5000 cells/well in the 384-well plates and incubated at 37° C. for 2 h. 500 ng/mL of LPS was added after 2 hours and cells were incubated for another 22 hours at 37° C. Plates were spun in a centrifuge for 1 minute at […] and a mixture of anti-IL6 XL665, and anti-IL6 Cryptate diluted in reconstitution buffer (Cisbio Inc.) was added to each well. Following incubation for 3 hrs at room temperature, Homogeneous Time-Resolved Fluorescence (HTRF) was measured using the Envision (Perkin Elmer) at 665 nm and […]. The ratio of fluorescence at 665 nm to 620 nm was used as a readout for IL6 quantification. All samples were processed in duplicate. Readings were normalized to DMSO treated cells and normalized activities were utilized for EC50 calculations using the dose-response log (inhibitor) vs. response-variable slope (four parameters) nonlinear regression feature available in GraphPad Prism 5.0 (or Dotmatics).
# SW480 colon cancer cells = test: Cell viability assay (CellTiter-Blue); details: Homo sapiens; for EC50: 96 h, SW480 cell viability, four days, CellTiter-Blue
# Protocol: Representative compounds were screened using the following assay procedure to assess the effect on cell viability as described below.
# Approximately 2×10^3 SW480 colon cancer cells were seeded into each well and allowed to incubate in the presence or absence of compound for four days at 37° C./5% CO2. Eight replicates of DMSO-treated cells served as controls and cells treated with compound were performed in duplicate.
# After incubation, 20 μL of CellTiter-Blue (Promega) was added to each well allowed to incubate for approximately 3 hours. This reagent was a buffered solution which contains resazurin, metabolically active cells were able to reduce rezarurin (blue) into resorufin (pink) which was highly fluorescent. This measured fluorescence was used as a readout for cell viability.
# [2] = test system: primary human mesenchymal stem cells (hMSCs); test: Induction of chondrogenesis in hMSCs (Rhodamine B / Nile Red nodule imaging); details: for Emax: maximum activity relative to TGF-β3 (10 ng/mL) positive control, read-out: Max. Activity as % TGF-β3 activity; for EC50: concentration required to induce 50% levels of chondrogenesis vs TGF-β3 positive control, read-out: Conc (nM) of 50% TGF-β3 activity
# From the text: Representative compounds were screened using primary human mesenchymal stem cells (hMSCs) to determine their ability to induce chondrogenesis (process by which cartilage is developed).
# Primary human mesenchymal stem cells (hMSCs) were purchased from Lonza (Walkersville, Md.) and expanded in Mesenchymal Stem Cell Growth Media (Lonza). Cells between passage 3 and 6 were used for the experiments.
# Area of nodules in each well was normalized to the average of 3 DMSO treated wells on the same plate using Excel (Microsoft Inc.). The normalized averages (fold change over DMSO) of 2 or 3 replicate wells for each compound concentration were calculated. Due to solubility limitations of some of the compounds, curve fitting was incomplete leading to inaccurate EC50 determinations.
# Using TGF-β3 as a positive control, the concentration of representative compounds required to induce 50% levels of chondrogenesis is reported. In addition, the maximum activity of each compound and the respective dose that each compound reached maximum chondrogenesis activity is reported.
# [3] = test system: primary human fibroblasts derived from IPF patients (LL29 cells) treated with TGF-β1; test: Inhibition of the fibrotic process (αSMA staining) in TGF-β1-treated fibroblasts; details: Fibroblast, 96 h; for EC50: % αSMA-positive LL29 cells, TGF-β1 20 ng/mL, 4 days; for inhibition at 10 µM: read-out: percent inhibition at 10 μM
# Protocol: Representative compounds were screened using primary human fibroblasts (derived from IPF patients) treated with TGF-β1 to determine their ability to inhibit the fibrotic process.
# LL29 cells are plated at 1,500 cells/well in 80 μL/well F12 medium supplemented with 1% Fetal Bovine Serum. […] Wells treated with TGF-P1 and containing DMSO were used as controls. […] Following incubation for 4 days, SYTOX green nucleic acid stain (Life Technologies [Thermo Fisher Scientific]) was added to the wells at a final concentration of 1 μM and incubated at room temperature for 30 min.
SMILES,EC50 [1],EC50 (IL-6 (THP-1 cells)),EC50 (SW480 colon cancer cells),EC50 [2],Emax [2],EC50 [3],"inhibition at 10 µM ([1]; SW480, read-out: percent inhibition at 10 μM)","inhibition at 10 µM (SW480 colon cancer cells; SW480, 96 h, read-out: percent inhibition at 10 μM)",inhibition at 10 µM [3]
"CCC(=O)Nc1cncc(-c2ccc3[nH]nc(-c4cc5c(-c6cccc(F)c6)nccc5[nH]4)c3c2)c1 [Compound 1, N-(5-(3-(4-(3-Fluorophenyl)-1H-pyrrolo[3,2-c]pyridin-2-yl)-1H-indazol-5-yl)pyridin-3-yl)propionamide]",45 nM,35 nM,102 nM,–,16%,41 nM,–,–,–
"Fc1cccc(-c2nccc3[nH]c(-c4n[nH]c5ccc(-c6cccnc6)cc45)cc23)c1 [Compound 4, 3-(4-(3-Fluorophenyl)-1H-pyrrolo[3,2-c]pyridin-2-yl)-5-(pyridin-3-yl)-1H-indazole]",140 nM,164 nM,453 nM,–,32%,44 nM,–,–,–
"CCCC(=O)Nc1cncc(-c2ccc3[nH]nc(-c4cc5c(-c6cccc(F)c6)nccc5[nH]4)c3c2)c1 [Compound 17, N-(5-(3-(4-(3-Fluorophenyl)-1H-pyrrolo[3,2-c]pyridin-2-yl)-1H-indazol-5-yl)pyridin-3-yl)butyramide]",50 nM,34 nM,93 nM,2700 nM,106%,19 nM,–,–,–
"O=C(Nc1cncc(-c2ccc3[nH]nc(-c4cc5c(-c6cccc(F)c6)nccc5[nH]4)c3c2)c1)C1CC1 [Compound 20, N-(5-(3-(4-(3-Fluorophenyl)-1H-pyrrolo[3,2-c]pyridin-2-yl)-1H-indazol-5-yl)pyridin-3-yl)cyclopropanecarboxamide]",50 nM,39 nM,179 nM,2700 nM,91%,167 nM,–,–,–
"O=C(Nc1cncc(-c2ccc3[nH]nc(-c4cc5c(-c6ccc(F)cc6)nccc5[nH]4)c3c2)c1)C1CCC1 [Compound 49, N-(5-(3-(4-(4-Fluorophenyl)-1H-pyrrolo[3,2-c]pyridin-2-yl)-1H-indazol-5-yl)pyridin-3-yl)cyclobutanecarboxamide]",365 nM,1080 nM,186 nM,900 nM,160%,115 nM,–,–,–
"Fc1ccc(-c2nccc3[nH]c(-c4n[nH]c5ccc(-c6cncnc6)cc45)cc23)cc1 [Compound 55, 3-(4-(4-Fluorophenyl)-1H-pyrrolo[3,2-c]pyridin-2-yl)-5-(pyrimidin-5-yl)-1H-indazole]",1510 nM,1570 nM,1050 nM,10 nM,194%,326 nM,–,–,–
"Nc1cncc(-c2ccc3[nH]nc(-c4cc5c(-c6ccccc6F)nccc5[nH]4)c3c2)c1 [Compound 59, 5-(3-(4-(2-Fluorophenyl)-1H-pyrrolo[3,2-c]pyridin-2-yl)-1H-indazol-5-yl)pyridin-3-amine]",60 nM,9540 nM,> 10000 nM,2700 nM,70%,> 10000 nM,–,43.5%,46.6%
"CCNCc1cncc(-c2ccc3[nH]nc(-c4cc5c(-c6ccccc6F)nccc5[nH]4)c3c2)c1 [Compound 62, N-((5-(3-(4-(2-Fluorophenyl)-1H-pyrrolo[3,2-c]pyridin-2-yl)-1H-indazol-5-yl)pyridin-3-yl)methyl)ethanamine]",3360 nM,2860 nM,1280 nM,900 nM,59%,2490 nM,–,–,–

# Further lines, with some results ahead:
EC50 [1],EC50 (IL-6 (THP-1 cells)),EC50 (SW480 colon cancer cells),EC50 [2],SMILES,Emax [2],EC50 [3],"inhibition at 10 µM ([1]; SW480, read-out: percent inhibition at 10 μM)","inhibition at 10 µM (SW480 colon cancer cells; SW480, 96 h, read-out: percent inhibition at 10 μM)",inhibition at 10 µM [3]
2940 nM,383 nM,776 nM,–,"CN(C)Cc1cncc(-c2ccc3[nH]nc(-c4cc5c(-c6cccc(F)c6)nccc5[nH]4)c3c2)c1 [Compound 13, 1-(5-(3-(4-(3-Fluorophenyl)-1H-pyrrolo[3,2-c]pyridin-2-yl)-1H-indazol-5-yl)pyridin-3-yl)-N,N-dimethylmethanamine]",42%,2760 nM,–,–,–
125 nM,142 nM,293 nM,10 nM,"Fc1cccc(-c2nccc3[nH]c(-c4n[nH]c5ccc(-c6cncc(CN7CCC(F)(F)C7)c6)cc45)cc23)c1 [Compound 26, 5-(5-((3,3-Difluoropyrrolidin-1-yl)methyl)pyridin-3-yl)-3-(4-(3-fluorophenyl)-1H-pyrrolo[3,2-c]pyridin-2-yl)-1H-indazole]",228%,169 nM,–,–,–
> 10000 nM,9400 nM,2990 nM,–,"CN(C)Cc1cncc(-c2ccc3[nH]nc(-c4cc5c(-c6ccc(F)cc6)nccc5[nH]4)c3c2)c1 [Compound 41, 1-(5-(3-(4-(4-Fluorophenyl)-1H-pyrrolo[3,2-c]pyridin-2-yl)-1H-indazol-5-yl)pyridin-3-yl)-N,N-dimethylmethanamine]",46%,2650 nM,55.7%,–,–
3620 nM,9010 nM,1410 nM,30 nM,"Fc1ccc(-c2nccc3[nH]c(-c4n[nH]c5ccc(-c6cncc(CN7CCCC7)c6)cc45)cc23)cc1 [Compound 42, 3-(4-(4-Fluorophenyl)-1H-pyrrolo[3,2-c]pyridin-2-yl)-5-(5-(pyrrolidin-1-ylmethyl)pyridin-3-yl)-1H-indazole]",98%,1340 nM,–,–,–
520 nM,929 nM,262 nM,900 nM,"CCCC(=O)Nc1cncc(-c2ccc3[nH]nc(-c4cc5c(-c6ccc(F)cc6)nccc5[nH]4)c3c2)c1 [Compound 45, N-(5-(3-(4-(4-Fluorophenyl)-1H-pyrrolo[3,2-c]pyridin-2-yl)-1H-indazol-5-yl)pyridin-3-yl)butyramide]",142%,263 nM,–,–,–
1010 nM,7620 nM,1500 nM,–,"COc1cncc(-c2ccc3[nH]nc(-c4cc5c(-c6ccco6)nccc5[nH]4)c3c2)c1 [Compound 991, 3-(4-(Furan-2-yl)-1H-pyrrolo[3,2-c]pyridin-2-yl)-5-(5-methoxypyridin-3-yl)-1H-indazole]",36%,–,–,–,–
93 nM,93 nM,546 nM,–,"Nc1cncc(-c2ccc3[nH]nc(-c4cc5c(N6CCCCC6)nccc5[nH]4)c3c2)n1 [Compound 992, 6-(3-(4-(Piperidin-1-yl)-1H-pyrrolo[3,2-c]pyridin-2-yl)-1H-indazol-5-yl) pyrazin-2-amine]",–,> 10000 nM,–,–,0%
